Experimental data: article PMC4109617, “The functionalized amino acid (S)-Lacosamide subverts CRMP2-mediated tubulin polymerization to prevent constitutive and activity-dependent increase in neurite outgrowth” (Frontiers in Cellular Neuroscience, 2014)

Target: T1, CRMP2 (collapsin response mediator protein 2) (Rattus norvegicus, UniProt P47942)
T1 construct: gene Dpysl2; purified recombinant wild-type CRMP2 (GST construct), NT647-labeled
Experiment: microscale thermophoresis (MST), Hill fit
Format: binding

COC[C@H](NC(C)=O)C(=O)NCc1ccccc1 [(S)-LCM, (S)-lacosamide]
Kd: 1.5 ± 0.01 µM
